Patent US6177438A, “Morphinan derivatives and pharmaceutical use thereof” (priority 1993, dated 2001)
Structures can show the parent of a compound that is named as a salt. Where two headings read alike, the source gives them in different places.

Legend:
δ receptor = target: T1, δ receptor (Mus musculus, UniProt P32300); parameters: species or system male ddy mouse; settings: for Ke, NTI: mouse vas deferens, δ, NTI added
T1 construct: The vas deferens extracted from the animal was suspended in a Magnus tube; from tissue; host or cells: mouse (male ddy) vas deferens
T1 sequence (P32300 whole entry): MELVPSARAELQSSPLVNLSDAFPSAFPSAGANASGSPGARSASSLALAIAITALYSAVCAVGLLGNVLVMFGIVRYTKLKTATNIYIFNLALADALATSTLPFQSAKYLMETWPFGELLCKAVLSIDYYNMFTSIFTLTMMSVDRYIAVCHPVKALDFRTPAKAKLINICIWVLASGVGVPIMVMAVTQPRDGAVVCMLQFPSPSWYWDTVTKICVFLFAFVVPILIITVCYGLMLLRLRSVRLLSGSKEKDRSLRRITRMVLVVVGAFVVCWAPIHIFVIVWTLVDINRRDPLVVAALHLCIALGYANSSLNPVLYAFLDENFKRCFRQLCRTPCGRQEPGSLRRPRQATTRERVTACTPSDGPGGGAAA

[1] = test system: cultured nerve cells (cerebral cortex); experiment: cells; settings: Rattus norvegicus, Cerebral cortex neuron, 24 h, read-out: ED50 (protection against glutamic acid toxicity)
[2] = test system: cultured nerve cells (cerebral cortex); settings: 10 mM glutamic acid, 24 hours
κ receptor = target: T2, κ receptor (Mus musculus, UniProt P33534); experiment: Opioid activity test using an extracted mouse vas deferens preparation, Ke with norBNI; parameters: species or system male ddy mouse; settings: for Ke, norBNI: κ, norBNI added; for receptor selectivity of agonist (κ): in words
T2 construct: from tissue; host or cells: mouse (male ddy) vas deferens
T2 sequence (P33534 whole entry): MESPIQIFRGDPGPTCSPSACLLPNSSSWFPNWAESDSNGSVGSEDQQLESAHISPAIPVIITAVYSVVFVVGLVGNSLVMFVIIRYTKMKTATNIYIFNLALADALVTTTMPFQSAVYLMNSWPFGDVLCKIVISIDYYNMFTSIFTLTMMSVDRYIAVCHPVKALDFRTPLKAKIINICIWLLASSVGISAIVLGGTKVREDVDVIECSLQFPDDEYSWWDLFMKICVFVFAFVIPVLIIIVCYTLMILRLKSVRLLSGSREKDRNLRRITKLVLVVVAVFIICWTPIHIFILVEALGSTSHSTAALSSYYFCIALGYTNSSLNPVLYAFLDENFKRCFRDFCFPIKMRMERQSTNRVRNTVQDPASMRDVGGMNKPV

[3] = test system: acetic acid-induced writhing in ddy mice; experiment: animal or person; type: in vivo, 5 week old ddy mice; settings: s.c. 15 minutes before acetic acid
Procedure: 5 week old ddy mice were used in this test. After intraperitoneal administration of 0.1 ml of 0.6% aqueous acetic acid per 10 g of body weight, the number of writhing reactions that occurred in 10 minutes starting 10 minutes after administration was evaluated for the indicator. The test drug was administered subcutaneously into the backs of the animals 15 minutes before administration of acetic acid.

μ receptor = target: T3, μ receptor (Mus musculus, UniProt P42866); experiment: Opioid activity test using an extracted mouse vas deferens preparation, Ke with naloxone; parameters: species or system male ddy mouse; settings: naloxone added
T3 construct: naloxone as mu antagonist (printed 'agonist')
T3 sequence (P42866 whole entry): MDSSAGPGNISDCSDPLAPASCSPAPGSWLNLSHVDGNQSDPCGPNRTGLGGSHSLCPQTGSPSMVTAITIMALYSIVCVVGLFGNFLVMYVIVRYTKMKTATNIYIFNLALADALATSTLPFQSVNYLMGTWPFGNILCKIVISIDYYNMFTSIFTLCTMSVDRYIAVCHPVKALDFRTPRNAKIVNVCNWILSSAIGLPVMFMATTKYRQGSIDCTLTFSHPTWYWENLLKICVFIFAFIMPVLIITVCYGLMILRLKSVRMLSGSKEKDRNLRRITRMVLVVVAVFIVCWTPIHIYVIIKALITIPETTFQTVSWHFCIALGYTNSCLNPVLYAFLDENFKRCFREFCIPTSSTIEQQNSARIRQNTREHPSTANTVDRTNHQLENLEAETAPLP

[4] = test system: extracted mouse vas deferens preparation; experiment: Opioid activity test using an extracted mouse vas deferens preparation (suppression of electrically induced contractions); parameters: species or system male ddy mouse; settings: electrical stimulus 0.1 Hz, 37° C.
Summary of the method: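 Male ddY mouse vas deferens in Krebs-Henseleit at 37° C, 5% CO2/95% O2, field-stimulated at 0.1 Hz, 5.0 ms; isometric contractions recorded. After adding naloxone, NTI or norBNI, test compound was added cumulatively after ~20 min; Ke derived from the difference in agonist efficacies.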

[5] = Diuretic action (urine output for 5 hours after physiological saline loading in rats); type: in vivo, male Wistar rats; settings: Rattus norvegicus, sc, 5 hours after saline 20 ml/kg p.o.; for ED (200% urine output): dose giving urine output of 200 (non-dosed group = 100); for ED (500% urine output): dose giving urine output of 500 (non-dosed group = 100)
Summary of the method: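 Male Wistar rats (7-8 weeks), water withheld 1 h, bladder emptied, drug given subcutaneously; 30 min later 20 ml/kg saline orally. Urine collected 5 h after saline loading in metabolic cages; ED200 and ED500 are doses giving urine output of 200 and 500 relative to non-dosed group at 100.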

[6] = Mus musculus, sc, read-out: ED50

| Structure (SMILES) | receptor selectivity of agonist (δ) (δ receptor) | Ke, NTI (δ receptor) [nM] | EC50 [1] [µM] | Protective action against cytotoxicity caused by glutamic acid (in words) [2] | Ke, norBNI (κ receptor) [nM] | ED50 [3, 6] [mg/kg] | Ke, Naloxone (μ receptor) [nM] | IC50 [4] [pM] | ED (200% urine output) [5] [mg/kg] | ED (500% urine output) [5] [mg/kg] | receptor selectivity of agonist (κ) (κ receptor) | ED50 [3] [mg/kg] |
| --- | --- | --- | --- | --- | --- | --- | --- | --- | --- | --- | --- | --- |
| CN(C(=O)C#Cc1ccccc1)[C@H]1CC[C@@]2(O)[C@H]3Cc4ccc(O)c5c4[C@@]2(CCN3CC2CC2)[C@H]1O5 [Compound 84, 17-cyclopropylmethyl-3,14β-dihydroxy-4,5α-epoxy-6α-(N-methyl-3-phenylpropiolamido)morphinan.cndot.hydrochloride] | selective agonists for δ receptors | 0.309 | 2.7 | clearly demonstrated action that protects nerve cells from cytotoxicity caused by glutamic acid | 5.69 | 0.0058 | 35.4 | 2070 | 0.0028 | 0.0469 |  |  |
| CN(C(=O)Cc1ccccc1)[C@H]1CC[C@@]2(O)[C@H]3Cc4ccc(O)c5c4[C@@]2(CCN3CC2CC2)[C@H]1O5 [Compound 23, 17-cyclopropylmethyl-3,14β-dihydroxy-4,5α-epoxy-6α-(N-methylphenylacetamido)morphinan.cndot.hydrochloride] |  |  | 1.61 | clearly demonstrated action that protects nerve cells from cytotoxicity caused by glutamic acid |  | 0.67 |  |  |  |  |  |  |
| CN(C(=O)CCc1ccccc1)[C@@H]1CC[C@@]2(O)[C@H]3Cc4ccc(O)c5c4[C@@]2(CCN3CC2CC2)[C@H]1O5 [Compound 57, 17-cyclopropylmethyl-3,14β-dihydroxy-4,5α-epoxy-6β-(N-methyl-3-phenylpropionamido)morphinan.cndot.hydrochloride] |  | 747 | 15.3 | clearly demonstrated action that protects nerve cells from cytotoxicity caused by glutamic acid | 0.0124 | 0.04 |  | 25.4 | 0.0424 | 1.26 | selective agonists for κ receptors |  |
| CN(C(=O)CCCc1ccccc1)[C@H]1CC[C@@]2(O)[C@H]3Cc4ccc(O)c5c4[C@@]2(CCN3CC2CC2)[C@H]1O5 [Compound 35, 17-cyclopropylmethyl-3,14β-dihydroxy-4,5α-epoxy-6α-(N-methyl-4-phenylbutyramido)morphinan.cndot.hydrochloride] |  |  | 0.64 | clearly demonstrated action that protects nerve cells from cytotoxicity caused by glutamic acid |  | 0.026 |  |  | 0.0245 | 5.19 |  |  |
| CCC/C=C/C(=O)N(C)[C@@H]1CC[C@@]2(O)[C@H]3Cc4ccc(O)c5c4[C@@]2(CCN3CC2CC2)[C@H]1O5 [Compound 100, 17-cyclopropylmethyl-3,14β-dihydroxy-4,5α-epoxy-6β-(N-methyl-trans-2-hexenamido)morphinan.cndot.tartrate] |  |  | 1.74 | clearly demonstrated action that protects nerve cells from cytotoxicity caused by glutamic acid | 0.0717 | 0.024 | 1797 | 647 | 0.0159 | 0.811 | selective agonists for κ receptors |  |
| CN(C(=O)/C=C/c1ccccc1)[C@@H]1CC[C@@]2(O)[C@H]3Cc4ccc(O)c5c4[C@@]2(CCN3CC2CC2)[C@H]1O5 [Compound 99, 17-cyclopropylmethyl-3,14β-dihydroxy-4,5α-epoxy-6β-(N-methylcinnararido)morphinan.cndot.hydrochloride] |  |  | 15.4 | clearly demonstrated action that protects nerve cells from cytotoxicity caused by glutamic acid | 0.652 |  | 94.5 | 674 | 0.0011 | 0.0309 | selective agonists for κ receptors | 0.0018 |
| C[C@H](C(=O)N(C)[C@H]1CC[C@@]2(O)[C@H]3Cc4ccc(O)c5c4[C@@]2(CCN3CC2CC2)[C@H]1O5)c1ccccc1 [Compound 32, 17-cyclopropylmethyl-4,5α-epoxy-3,14β-dihydroxy-6α-[(S)-N-methyl-2-phenylpropionamido]morphinan.cndot.tartrate] |  |  | 2.14 | clearly demonstrated action that protects nerve cells from cytotoxicity caused by glutamic acid |  | 0.29 |  |  |  |  |  |  |
| CN(C(=O)Cc1ccc(Cl)c(Cl)c1)[C@@H]1CC[C@@]2(O)[C@H]3Cc4ccc(O)c5c4[C@@]2(CCN3CC2CC2)[C@H]1O5 [Compound 53, 17-cyclopropylmethyl-4,5α-epoxy-3,14β-dihydroxy-6β-(N-methyl-3,4-dichlorophenylacetoamido)morphinan.cndot.hydrochloride] |  | 1676 | 2.51 | clearly demonstrated action that protects nerve cells from cytotoxicity caused by glutamic acid | 0.21 | 0.46 |  | 10300 | 0.135 | 0.658 | selective agonists for κ receptors |  |
| CN(C(=O)C1CCCCC1)[C@H]1CC[C@@]2(O)[C@H]3Cc4ccc(O)c5c4[C@@]2(CCN3CC2CC2)[C@H]1O5 [Compound 33, 17-cyclopropylmethyl-3,14β-dihydroxy-4,5α-epoxy-6α-(N-methylcyclohexylcarboxyamido)morphinan.cndot.hydrochloride] |  |  | 3.53 | clearly demonstrated action that protects nerve cells from cytotoxicity caused by glutamic acid |  | 0.08 |  |  |  |  |  |  |
| CN(C(=O)OCc1ccccc1)[C@@H]1CC[C@@]2(O)[C@H]3Cc4ccc(O)c5c4[C@@]2(CCN3CC2CC2)[C@H]1O5 [Compound 56, 17-cyclopropylmethyl-3,14β-dihydroxy-4,5α-epoxy-6β-(N-methylbenzyloxycarbamido)morphinan.cndot.hydrochloride] |  |  | 5.23 | clearly demonstrated action that protects nerve cells from cytotoxicity caused by glutamic acid |  | 0.00802 |  |  | 0.0028 | 0.0518 |  |  |
| CN(C(=O)Cc1cccc(C(F)(F)F)c1)[C@H]1CC[C@@]2(O)[C@H]3Cc4ccc(O)c5c4[C@@]2(CCN3CC2CC2)[C@H]1O5 [Compound 108, 17-cyclopropylmethyl-3,14β-dihydroxy-4,5α-epoxy-6α-(N-methyl-3-trifluoromethylphenylacetamido)morphinan.cndot.hydrochloride] |  |  | 0.25 | clearly demonstrated action that protects nerve cells from cytotoxicity caused by glutamic acid |  | 0.0064 |  |  | 0.021 | 5.11 |  |  |
| CN(C(=O)COc1ccccc1)[C@@H]1CC[C@@]2(O)[C@H]3Cc4ccc(O)c5c4[C@@]2(CCN3CC2CC2)[C@H]1O5 [Compound 58, 17-cyclopropylmethyl-3,14β-dihydroxy-4,5α-epoxy-6β-(N-methylphenoxyacetamido)morphinan.cndot.tartrate] |  |  | 16.7 | clearly demonstrated action that protects nerve cells from cytotoxicity caused by glutamic acid |  | 0.19 |  |  |  |  |  |  |
| CN(C(=O)c1ccccc1)[C@H]1CC[C@@]2(O)[C@H]3Cc4ccc(O)c5c4[C@@]2(CCN3CC2CC2)[C@H]1O5 [Compound 34, 17-cyclopropylmethyl-3,14β-dihydroxy-4,5α-epoxy-6α-(N-methylbenzamido)morphinan.cndot.hydrochloride] |  |  | 0.18 | clearly demonstrated action that protects nerve cells from cytotoxicity caused by glutamic acid |  | 0.21 |  |  |  |  |  |  |
| O=C(Cc1ccc(Cl)c(Cl)c1)N[C@H]1CC[C@@]2(O)[C@H]3Cc4ccc(O)c5c4[C@@]2(CCN3CC2CC2)[C@H]1O5 [Compound 52, 17-cyclopropylmethyl-4,5α-epoxy-3,14β-dihydroxy-6α-(3,4-dichlorophenylacetoamido)morphinan.cndot.hydrochloride] |  |  | 1.71 | clearly demonstrated action that protects nerve cells from cytotoxicity caused by glutamic acid |  |  |  |  |  |  |  |  |
